Inconclusive results and toxic doses are left out. No stated cut-off is given here; in the data, active means T/C of 150% or more; inactive means T/C below 125%. Numbered stars: 1 amine (or outer) side, 2 acyl side, 3 side chain; on linkers, the order of the positions; unused ones are H or OH. Bridge positions count the residues as written; N and C are the ends. Square brackets hold non-standard residues; d marks the D form. Peptide text beside a SMILES is read from it. I, II: the chains in the order shown. Actinocin(1to9) = Cc1c2oc3c(C)ccc(C(=O)[*:2])c3nc-2c(C(=O)[*:1])c(N)c1=O; X2 = CC(=O)OC1CC(C)N([*:1])C1C(=O)[*:2]; X1 = CC1CC(=O)C(C(=O)[*:2])N1[*:1]; NMeV = CN[CH](C(=O)O)C(C)C; NMeA = CN[CH](C)C(=O)O; Sar = CNCC(=O)O
Tested on: L1210 leukemia ip in BDF1 mice, survival T/C
Assay: NCI In Vivo Anticancer Drug Screen. Data for tumor model L1210 Leukemia (intraperitoneal) in B6D2F1 (BDF1) mice
Conditions: endpoint: mean survival time, higher = longer survival
Procedure, shortened: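 Each compound was tested against a transplantable tumor grown in mice. The endpoint was survival, with treated animals benchmarked against vehicle controls as a simple ratio.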

[1] = dose: 100.0 mg/kg/injection, schedule: Q01DX009 (ip), vehicle: Klucel (hydroxypropylcellulose) (HPC)
[2] = dose: 200.0 mg/kg/injection, schedule: Q01DX009 (ip), vehicle: Klucel (hydroxypropylcellulose) (HPC)

Measured: T/C

CC(=O)OC1CC(C)N2C(=O)C(C(C)C)NC(=O)C(NC(=O)c3ccc(C)c4oc5c(C)c(=O)c(N)c(C(=O)NC6C(=O)NC(C(C)C)C(=O)N7C(C)CC(=O)C7C(=O)N(C)CC(=O)N(C)C(C)C(=O)OC6C)c-5nc34)C(C)OC(=O)C(C(C)C)N(C)C(=O)CN(C)C(=O)C12 (configuration not stated) (I: TV[X1][Sar][NMeA] / II: TV[X2][Sar][NMeV]; ester I:1-I:C, II:1-II:C; linker I:N-II:N via Actinocin(1to9); configuration not given here)
inactive: dose: 0.1 mg/kg/injection, schedule: Q01DX009 (ip), vehicle: saline + alcohol 101 % of control | dose: 0.2 mg/kg/injection, schedule: Q01DX009 (ip), vehicle: saline + alcohol 105 % of control | dose: 0.3 mg/kg/injection, schedule: Q04DX003 (ip), vehicle: saline + alcohol 97 % of control | dose: 0.4 mg/kg/injection, schedule: Q01DX009 (ip), vehicle: saline + alcohol 110 % of control | dose: 0.6 mg/kg/injection, schedule: Q04DX003 (ip), vehicle: saline + alcohol 108 % of control | dose: 0.8 mg/kg/injection, schedule: Q01DX001 (ip), vehicle: saline + alcohol 97 % of control | dose: 0.8 mg/kg/injection, schedule: Q01DX009 (ip), vehicle: saline + alcohol 116 % of control | dose: 1.2 mg/kg/injection, schedule: Q04DX003 (ip), vehicle: saline + alcohol 110 % of control | dose: 1.6 mg/kg/injection, schedule: Q01DX001 (ip), vehicle: saline + alcohol 102 % of control | dose: 1.6 mg/kg/injection, schedule: Q01DX009 (ip), vehicle: saline + alcohol 122 % of control | dose: 2.4 mg/kg/injection, schedule: Q04DX003 (ip), vehicle: saline + alcohol 112 % of control | dose: 3.2 mg/kg/injection, schedule: Q01DX001 (ip), vehicle: saline + alcohol 106 % of control | dose: 4.8 mg/kg/injection, schedule: Q04DX003 (ip), vehicle: saline + alcohol 121 % of control | dose: 6.4 mg/kg/injection, schedule: Q01DX001 (ip), vehicle: saline + alcohol 122 % of control

CN=C(N)N/N=C/C(C)=N/NC(N)=NC
inactive: dose: 15.0 mg/kg/injection, schedule: Q01DX Z (ip), vehicle: saline 96 % of control | dose: 30.0 mg/kg/injection, schedule: Q01DX Z (ip), vehicle: saline 106 % of control | dose: 60.0 mg/kg/injection, schedule: Q01DX Z (ip), vehicle: saline 104 % of control | dose: 120.0 mg/kg/injection, schedule: Q01DX Z (ip), vehicle: saline 95 % of control

COc1ccc(Cl)cc1NC(=O)Nc1ccc(Cl)c(Cl)c1
inactive: [1] 95 % of control | dose: 100.0 mg/kg/injection, schedule: Q04DX003 (ip), vehicle: Klucel (hydroxypropylcellulose) (HPC) 112 % of control | [2] 92 % of control | dose: 200.0 mg/kg/injection, schedule: Q04DX003 (ip), vehicle: Klucel (hydroxypropylcellulose) (HPC) 89 % of control | dose: 400.0 mg/kg/injection, schedule: Q01DX009 (ip), vehicle: Klucel (hydroxypropylcellulose) (HPC) 102 % of control | dose: 400.0 mg/kg/injection, schedule: Q04DX003 (ip), vehicle: Klucel (hydroxypropylcellulose) (HPC) 109 % of control

CCOC(=O)/C=C1\CC2c3cc(OC)c(OC)cc3CCN2CC1CC (configuration not stated)
inactive: dose: 50.0 mg/kg/injection, schedule: Q01DX009 (ip), vehicle: Klucel (hydroxypropylcellulose) (HPC) 93 % of control | [1] 96 % of control | [2] 96 % of control
